Columns and labels:
Format in all cases: in vivo
[1] = tested on: Echinochloa crus-galli (ECHCG); test: Post-emergence herbicidal action, greenhouse pot test (also comparative test C)
Summary of the method: (§1)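 Green parts of one-leaf-stage plants are sprayed at 600 l/ha with formulated compound plus 0.5% additive, then kept under optimum greenhouse conditions for about 3 weeks. Damage is scored visually, where 100% means dead plants and 0% means no difference from controls.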

Setaria viridis (SETVI) = test: as above; conditions: for Post-emergence action against SETVI: 20 g/ha
Summary of the method: as §1

[2] = tested on: Matricaria inodora (MATIN); test: as above
Summary of the method: as §1

[3] = tested on: Alopecurus myosuroides (ALOMY); test: as above; conditions: rated visually after about 3 weeks vs untreated controls, 100% = plants have died
Summary of the method: as §1

[4] = tested on: Polygonum convolvulus (POLCO); test: Post-emergence herbicidal action, greenhouse pot test
Summary of the method: (§2)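 Activity was scored by eye about 3 weeks after treatment against untreated plants, where 100% means dead plants and 0% means no difference. Plants at the one-leaf stage received a foliar spray of WP or EC formulations in water plus 0.5% additive (600 l/ha, up to 20 g/ha). Plants were grown in sandy loam pots in a greenhouse for 2–3 weeks before spraying.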

Veronica persica (VERPE) = test: as above
Summary of the method: as §2

[5] = tested on: Amaranthus retroflexus (AMARE); test: as above; conditions: rated visually after about 3 weeks vs untreated controls, 100% = plants have died
Summary of the method: as §2

[6] = tested on: Pharbitis purpurea (PHBPU); test: as above
Summary of the method: as §2

Viola tricolor (VIOTR) = test: as above
Summary of the method: as §2

[7] = tested on: Abutilon theophrasti (ABUTH); test: as above; conditions: rated visually after about 3 weeks vs untreated controls, 100% = plants have died
Summary of the method: as §2

Avena fatua (AVEFA) = test: as above; conditions: 20 g/ha, rated visually after about 3 weeks vs untreated controls, 100% = plants have died
Summary of the method: as §2

[8] = tested on: Triticum aestivum (TRZAS); test: Post-emergence crop plant compatibility, greenhouse pot test; conditions: vs untreated controls
Summary of the method: (§3)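 Values are visual % damage versus untreated controls (100% = plants died) about 3 weeks after treatment. Plants in sandy loam were sprayed at the one-leaf stage, 2–3 weeks after sowing, with aqueous WP/EC preparations plus 0.5% additive at 600 l/ha; a/b/c mark different dose levels.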

Oryza sativa (ORYSA) = test: Post-emergence crop plant compatibility, greenhouse pot test (also comparative test C); conditions: for Post-emergence action against ORYSA (crop plant compatibility): vs untreated controls; for Post-emergence action against ORYSA in %: 20 g/ha, crop plant compatibility
Summary of the method: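 Visual damage versus untreated plants (0% = like control, 100% = plants died) was scored about 3 weeks after a post-emergence spray in greenhouse pots. Treatment: one-leaf stage, WP or EC in water at 600 l/ha with 0.5% additive; a/b/c mark different dosages on the same crop.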

Zea mays (ZEAMX) = test: Post-emergence crop plant compatibility, greenhouse pot test; conditions: 1.25 g/ha, vs untreated controls
Summary of the method: as §3

Question: `COCCOCCOC(=O)COc1ccccc1Oc1cc(-n2c(=O)cc(C(F)(F)F)n(C)c2=O)c(F)cc1Br` [I.8-23] was tested. Which “Post-emergence action against ECHCG in %” value ([1]; dosage 5 g/ha) did it give?
Answer: The value was 100%.

Question: What about the “Post-emergence action against ECHCG in %” value ([1]; dosage 20 g/ha) of the same molecule?
Answer: The value was 100%.

Question: And the “Post-emergence action against SETVI” value (Setaria viridis (SETVI))?
Answer: The value was 100%.

Question: What about the “Post-emergence action against SETVI in %” value (Setaria viridis (SETVI); dosage 1.25 g/ha) of the same molecule?
Answer: The value was 100%.

Question: What about the “Post-emergence action against SETVI in %” value (Setaria viridis (SETVI); dosage 5 g/ha) of the same molecule?
Answer: The value was 100%.

Question: And the “Post-emergence action against MATIN in %” value ([2]; dosage 5 g/ha)?
Answer: The value was 100%.

Question: What about the “Post-emergence action against MATIN in %” value ([2]; dosage 20 g/ha) of the same molecule?
Answer: Its value is 100%.

Question: And the “Post-emergence action at 5 g/ha against ALOMY in %” value ([3]; 5 g/ha)?
Answer: The value was 80%.

Question: And the “Post-emergence action at 20 g/ha against ALOMY in %” value [3]?
Answer: Its value is 100%.

Question: What about the “Post-emergence action against POLCO in %” value ([4]; dosage 5 g/ha) of the same molecule?
Answer: Its value is 100%.

Question: And the “Post-emergence action against POLCO in %” value ([4]; dosage 20 g/ha)?
Answer: The value was 100%.

Question: What about the “Post-emergence action against VERPE” value (Veronica persica (VERPE); 1.25 g/ha) of the same molecule?
Answer: The value was 80%.

Question: And the “Post-emergence action against VERPE” value (Veronica persica (VERPE); 5 g/ha)?
Answer: The value was 100%.

Question: And the “Post-emergence action against VERPE” value (Veronica persica (VERPE); 20 g/ha)?
Answer: Its value is 100%.

Question: And the “Post-emergence action at 1.25 g/ha against AMARE in %” value [5]?
Answer: The value was 100%.

Question: And the “Post-emergence action at 5 g/ha against AMARE in %” value [5]?
Answer: The value was 100%.

Question: What about the “Post-emergence action at 20 g/ha against AMARE in %” value [5] of the same molecule?
Answer: Its value is 100%.

Question: And the “Post-emergence action against PHBPU in %” value ([6]; dosage 1.25 g/ha)?
Answer: Its value is 100%.

Question: What about the “Post-emergence action against PHBPU in %” value ([6]; dosage 5 g/ha) of the same molecule?
Answer: Its value is 100%.

Question: And the “Post-emergence action against PHBPU in %” value ([6]; dosage 20 g/ha)?
Answer: The value was 100%.

Question: And the “Post-emergence action against VIOTR” value (Viola tricolor (VIOTR); 1.25 g/ha)?
Answer: The value was 100%.

Question: And the “Post-emergence action against VIOTR” value (Viola tricolor (VIOTR); 5 g/ha)?
Answer: The value was 100%.

Question: And the “Post-emergence action against VIOTR” value (Viola tricolor (VIOTR); 20 g/ha)?
Answer: The value was 100%.

Question: What about the “Post-emergence action at 1.25 g/ha against ABUTH in %” value [7] of the same molecule?
Answer: Its value is 100%.

Question: And the “Post-emergence action at 5 g/ha against ABUTH in %” value [7]?
Answer: The value was 100%.

Question: And the “Post-emergence action at 20 g/ha against ABUTH in %” value [7]?
Answer: The value was 100%.

Question: And the “Post-emergence action at 20 g/ha against AVEFA in %” value (Avena fatua (AVEFA))?
Answer: Its value is 80%.

Question: And the “Post-emergence action against TRZAS (crop plant compatibility)” value (“Post-emergence action against TRZAS” for short) ([8]; 1.25 g/ha)?
Answer: Its value is 10%.

Question: What about the “Post-emergence action against TRZAS” value ([8]; 5 g/ha) of the same molecule?
Answer: The value was 20%.

Question: And the “Post-emergence action against ORYSA (crop plant compatibility)” value (Oryza sativa (ORYSA); 1.25 g/ha)?
Answer: Its value is 0%.

Question: What about the “Post-emergence action against ORYSA (crop plant compatibility)” value (Oryza sativa (ORYSA); 5 g/ha) of the same molecule?
Answer: Its value is 0%.

Question: And the “Post-emergence action against ORYSA in %” value (Oryza sativa (ORYSA))?
Answer: The value was 20%.

Question: `Cn1c(C(F)(F)F)cc(=O)n(-c2cc(Oc3ccccc3OCC(=O)OCc3cccnc3)c(Cl)cc2F)c1=O` [I.7-277] was tested. Which “Post-emergence action against ECHCG in %” value ([1]; dosage 5 g/ha) did it give?
Answer: Its value is 100%.

Question: What about the “Post-emergence action against ECHCG in %” value ([1]; dosage 20 g/ha) of the same molecule?
Answer: Its value is 100%.

Question: What about the “Post-emergence action against SETVI” value (Setaria viridis (SETVI)) of the same molecule?
Answer: Its value is 100%.

Question: And the “Post-emergence action against SETVI in %” value (Setaria viridis (SETVI); dosage 1.25 g/ha)?
Answer: Its value is 100%.

Question: And the “Post-emergence action against SETVI in %” value (Setaria viridis (SETVI); dosage 5 g/ha)?
Answer: The value was 100%.

Question: What about the “Post-emergence action against MATIN in %” value ([2]; dosage 5 g/ha) of the same molecule?
Answer: The value was 80%.

Question: What about the “Post-emergence action against MATIN in %” value ([2]; dosage 20 g/ha) of the same molecule?
Answer: Its value is 100%.

Question: And the “Post-emergence action at 20 g/ha against ALOMY in %” value [3]?
Answer: The value was 100%.

Question: And the “Post-emergence action against POLCO in %” value ([4]; dosage 20 g/ha)?
Answer: The value was 100%.

Question: What about the “Post-emergence action against VERPE” value (Veronica persica (VERPE); 1.25 g/ha) of the same molecule?
Answer: The value was 100%.

Question: And the “Post-emergence action against VERPE” value (Veronica persica (VERPE); 5 g/ha)?
Answer: Its value is 100%.

Question: And the “Post-emergence action against VERPE” value (Veronica persica (VERPE); 20 g/ha)?
Answer: Its value is 100%.

Question: What about the “Post-emergence action at 1.25 g/ha against AMARE in %” value [5] of the same molecule?
Answer: Its value is 100%.

Question: What about the “Post-emergence action at 5 g/ha against AMARE in %” value [5] of the same molecule?
Answer: Its value is 100%.

Question: And the “Post-emergence action at 20 g/ha against AMARE in %” value [5]?
Answer: The value was 100%.

Question: What about the “Post-emergence action against PHBPU in %” value ([6]; dosage 5 g/ha) of the same molecule?
Answer: Its value is 100%.

Question: And the “Post-emergence action against PHBPU in %” value ([6]; dosage 20 g/ha)?
Answer: Its value is 100%.

Question: What about the “Post-emergence action against VIOTR” value (Viola tricolor (VIOTR); 1.25 g/ha) of the same molecule?
Answer: Its value is 80%.

Question: And the “Post-emergence action against VIOTR” value (Viola tricolor (VIOTR); 5 g/ha)?
Answer: Its value is 100%.

Question: And the “Post-emergence action against VIOTR” value (Viola tricolor (VIOTR); 20 g/ha)?
Answer: Its value is 100%.

Question: And the “Post-emergence action at 1.25 g/ha against ABUTH in %” value [7]?
Answer: Its value is 90%.

Question: And the “Post-emergence action at 5 g/ha against ABUTH in %” value [7]?
Answer: Its value is 100%.

Question: What about the “Post-emergence action at 20 g/ha against ABUTH in %” value [7] of the same molecule?
Answer: The value was 100%.

Question: And the “Post-emergence action against ZEAMX (crop plant compatibility)” value (Zea mays (ZEAMX))?
Answer: Its value is 0%.

Question: And the “Post-emergence action against TRZAS” value ([8]; 1.25 g/ha)?
Answer: The value was 0%.

Question: And the “Post-emergence action against TRZAS” value ([8]; 5 g/ha)?
Answer: The value was 20%.

Question: What about the “Post-emergence action against ORYSA (crop plant compatibility)” value (Oryza sativa (ORYSA); 1.25 g/ha) of the same molecule?
Answer: The value was 0%.

Question: What about the “Post-emergence action against ORYSA (crop plant compatibility)” value (Oryza sativa (ORYSA); 5 g/ha) of the same molecule?
Answer: The value was 0%.

Question: What about the “Post-emergence action against ORYSA in %” value (Oryza sativa (ORYSA)) of the same molecule?
Answer: Its value is 20%.

— patent publication US20240025862A1, “SUBSTITUTED N-PHENYLURACILS AND SALTS THEREOF, AND USE THEREOF AS HERBICIDAL ACTIVE SUBSTANCES” (Bayer Aktiengesellschaft, priority 2020, published 2024)
